This is an account of results in patent US20250221953A1 (The University of Chicago, priority 2022, published 2025).

The assay relates to Jurkat T cells. It is filed as cell-based, human. The settings on record: IL-2 production level in treated group compared to control group; 48 hours treatment, then anti-CD3/anti-CD28 12 hours. The source says:
Two preliminary screens were designed and performed.
To construct “blood chemical compound library for cell-based screening purposes, components such as antibodies that are difficult to distinguish due to a wide variety, and some supplements that only function at a whole organism level including fish oils and herbs were excluded. Physiological ranges of serum levels of individual blood chemicals are available in the human metabolome database (https://hmdb.ca/) and applied in the experimental design. For first screen 1a, Jurkat T cells were treated with blood chemical library for 48 hours and then activated with 2.5 μg/mL anti-CD3 and 0.5 μg/mL anti-CD28 antibodies for another 12 hours, followed by measurement of IL-2 level in medium supernatant using ELISA kit (Biolegend). For first screen 1b, 1×10^5 PD-1^+ Jurkat T cells were co-cultured with 2×10^4 H596 (PD-L1^+) cells in a well of 96-well plate for 60 hours, and then activated with 2.5 μg/mL anti-CD3 and 0.5 μg/mL anti-CD28 antibodies for another 12 hours, followed by measurement of IL-2 level in medium supernatant using ELISA kit. Please also refer to Resources Table and Table 1-2 for more details.

For the compound `O=C([O-])CC(O)(CC(=O)[O-])C(=O)[O-].[K+].[K+].[K+]` [Potassium Citrate], the “Relative changed percentage (%)” value is 58.7511%.
Regarding `O=C([O-])[C@H](O)[C@@H](O)[C@H](O)[C@H](O)CO.[K+]` [Potassium Gluconate], the “Relative changed percentage (%)” value was 97.7133%.
`O=P([O-])([O-])O.[K+].[K+]` [Potassium Phosphate Dibasic]: the “Relative changed percentage (%)” value worked out at 177.4846%.
In the case of `C/C=C/C=C/C(=O)[O-].[K+]` [Potassium sorbate] it was −2.288%; in that of `CC(=O)O[C@H]1CC[C@@]2(C)C(=CC[C@H]3[C@@H]4CC[C@H](C(C)=O)[C@@]4(C)CC[C@@H]32)C1` [Pregnenolone Acetate], 82.91%.
In the case of `COc1cc(/C=C/c2ccc(O)cc2)cc(OC)c1` [Pterostibene], the “Relative changed percentage (%)” value is reported as 6.874%.
On to `Cc1ncc(CO)c(C=O)c1O.Cl` [Pyridoxal Hydrochloride], for which the “Relative changed percentage (%)” value is given as 7.787%.
Then `Cc1ncc(CO)c(CO)c1O.Cl` [Pyridoxine Hydrochloride], with −17.45%.
Consider `O=c1c(O)c(-c2ccc(O)c(O)c2)oc2cc(O)cc(O)c12` [Quercetin], for which the “Relative changed percentage (%)” value is listed as −4.501%.
With `Oc1ccc(C=Cc2cc(O)cc(O)c2)cc1` [Resveratrol], the “Relative changed percentage (%)” value worked out at 13.16%.
`C[C@@H]1O[C@@H](OC[C@H]2O[C@@H](Oc3c(-c4ccc(O)c(O)c4)oc4cc(O)cc(O)c4c3=O)[C@H](O)[C@@H](O)[C@@H]2O)[C@H](O)[C@H](O)[C@H]1O` [Rutoside trihydrate]: the “Relative changed percentage (%)” value was found to be 14.9881%.
As to `O=C([O-])O.[Na+]` [SODIUM BICARBONATE], the “Relative changed percentage (%)” value came to 50.35%.
In the case of `[Br-].[Na+]` [SODIUM BROMIDE] it was −26.98%.
Then `[Cl-].[Na+]` [SODIUM CHLORIDE], with 36.53%; and `O=S(=O)([O-])[O-].[Na+].[Na+]` [SODIUM SULFATE], with 38.99%.
`O=C(O)CCC(=O)O` [SUCCINIC ACID]: the “Relative changed percentage (%)” value amounted to 4.14%.
For `OC[C@H]1O[C@@](CO)(O[C@H]2O[C@H](CO)[C@@H](O)[C@H](O)[C@H]2O)[C@@H](O)[C@@H]1O` [SUCROSE], the “Relative changed percentage (%)” value was found to be 70.45%.
For the compound `[F-].[Na+]` [Sodium Fluoride], the “Relative changed percentage (%)” value is listed as −43.81%.
In the case of `[Na+].[Na+].[O]=[Mo](=[O])([O-])[O-]` [Sodium Molybdate] it was 22.1968%; in that of `O=C([O-])CC(O)(CC(=O)[O-])C(=O)[O-].[Na+].[Na+].[Na+]` [Sodium citrate], 13.84%; in that of `CCCCCCCCCCCCCCCCCC(=O)O` [Stearic Acid], 38.77%.
In the case of `CC/C=C\C/C=C\C/C=C\C/C=C\CCCCC(=O)O` [Stearidonic Acid] it was 109.3%; in that of `Cn1cnc2c1c(=O)[nH]c(=O)n2C` [THEOBROMINE], 25.42%; in that of `Cc1ncc(C[n+]2csc(CCOP(=O)(O)OP(=O)(O)O)c2C)c(N)n1` [TIIIAMINE PYROPIIOSPIIATE], 9.753%.
In the case of `[Cl][Sn][Cl]` [TIN(II) CHLORIDE/Tin, TIN(II) CHLORIDE], the “Relative changed percentage (%)” value is reported as 18.86%.
With `CC1=CC(=O)C(C(C)C)=CC1=O` [Thymoquinone], the “Relative changed percentage (%)” value came to 4.558%.
In the case of `C[N+](C)(C)CC(=O)[O-]` [Trimethylglycine], the “Relative changed percentage (%)” value is on record as 9.459%.
Consider `O=c1cc[nH]c(=O)[nH]1` [URACIL], for which the “Relative changed percentage (%)” value came out at 2.457%.
Consider `NC(N)=O` [UREA], for which the “Relative changed percentage (%)” value is on record as −0.3112%.
For `O=c1[nH]c(=O)c2[nH]c(=O)[nH]c2[nH]1` [URIC ACID], the “Relative changed percentage (%)” value was −6.651%.
In the case of `COc1c(O)c(C)c(C/C=C(\C)CC/C=C(\C)CC/C=C(\C)CC/C=C(\C)CC/C=C(\C)CC/C=C(\C)CC/C=C(\C)CC/C=C(\C)CC/C=C(\C)CCC=C(C)C)c(O)c1OC` [Ubiquinol] it was 2.165%; in that of `CC1=C(C/C=C(\C)CCC[C@H](C)CCC[C@H](C)CCCC(C)C)C(=O)c2ccccc2C1=O` [VITAMIN K1], 10.13%; in that of `O=S(=O)([O-])[O-].[O]=[V+2]` [Vanadylsulfate], 7.094%.
Take `[Cl-].[Cl-].[Zn+2]` [ZINC CHLORIDE]: the “Relative changed percentage (%)” value is given as 13.34%.
On to `CC1=C(/C=C/C(C)=C/C=C/C(C)=C/C=C/C=C(C)/C=C/C=C(C)/C=C/C2=C(C)C[C@@H](O)CC2(C)C)C(C)(C)C[C@H](O)C1` [Zcaxanthin], for which the “Relative changed percentage (%)” value is recorded as −1.652%.
Take `O=C([O-])CC(O)(CC(=O)[O-])C(=O)[O-].O=C([O-])CC(O)(CC(=O)[O-])C(=O)[O-].[Zn+2].[Zn+2].[Zn+2]` [Zinc Citrate]: the “Relative changed percentage (%)” value is given as −2.073%.
In the case of `[O]=[Zn]` [Zinc Oxide] it was 3.627%; in that of `CC1=C(/C=C/C(C)=C/C=C/C(C)=C/C=C/C=C(C)/C=C/C=C(C)/C=C/C2=C(C)CCCC2(C)C)C(C)(C)CCC1` [all trans B carotene], 35.08%.
Consider `O=C(O)CCCCC1CCSS1` (stereo not drawn) [alpha-lipoic acid], for which the “Relative changed percentage (%)” value came to 54.62%.
In the case of `O=C(O)CCCC[C@@H]1SC[C@@H]2NC(=O)N[C@@H]21` [d-Biotin], the “Relative changed percentage (%)” value is 29.84%.
On to `CCCCC/C=C\C/C=C\CCCCCCCC(=O)O` [linoleic acid], for which the “Relative changed percentage (%)” value is given as −9.42%.
As for `O=[Se](O)O` [sodium selenite], the “Relative changed percentage (%)” value is recorded as 13.27%.
For `[Cl-].[Cl-].[Sr+2]` [strontium chloride], the “Relative changed percentage (%)” value was determined as 30.89%.
In the case of `O=C(O)[C@@H]1C[C@@H](O)CN1` [trans-4-Hydroxy-L-proline] it was 5.281%; in that of `N[C@@H](Cc1cc(I)c(Oc2ccc(O)c(I)c2)c(I)c1)C(=O)[O-].[Na+]` [′,5-TRIIODO-L-THYRONINE SODIUM SALT], −13.42%; in that of (−)-EPINEPHRINE, 53.12%.
For the compound ADENINE DI[…] SALT HYDRAT, the “Relative changed percentage (%)” value is on record as −0.3704%.
Take ALPHA 1 ANTITRYPSIN, HUMAN PLASMA: the “Relative changed percentage (%)” value is reported as −10.6%.
For ARG8-VASOPRESSIN ACETATE SALT, the “Relative changed percentage (%)” value is −7.61%.
Regarding “Alpha-Tocopherol [(+/−)-A-TOCOPHEROL/Alpha-Tocopherol]”, the “Relative changed percentage (%)” value is given as 40.65%.
For the compound Bilirubin Mixed Isomers, the “Relative changed percentage (%)” value was −37.62%.
In the case of Bromelain from pineapple stem it was 16.0114%; in that of “C-PEPTIDE FRAGMENT 3-33, HUMAN [C-PEPTIDE FRAGMENT 3-33, HUMAN/C-peptide]”, −11.7%; in that of CELLULOSE FIBROUS, −13.2%.
Turning to CHITIN, the “Relative changed percentage (%)” value was determined as 5.909%.
As for CHONDROITIN SULFATE, A SODIUM SALT, the “Relative changed percentage (%)” value stood at 9.195%.
